Laboratory results reported in ChEMBL document CHEMBL5653631, “A Potent and Selective ULK1 Inhibitor Suppresses Autophagy and Sensitizes Cancer Cells to Nutrient Stress” (iScience, 2018).
One block for each compound: values may come before it.

Columns and labels:
[1] = biological target: cAMP-dependent protein kinase catalytic subunit alpha (Homo sapiens) (UniProt P17612); assay: Inhibition of human recombinant PKACalpha at 500 nM related to control ULK1
[2] = biological target: Serine/threonine-protein kinase PLK3 (Homo sapiens) (UniProt Q9H4B4); assay: Inhibition of human recombinant PLK3 at 500 nM related to control ULK1
Serine/threonine-protein kinase PLK3 (Homo sapiens), sequence (Q9H4B4 whole entry, looked up): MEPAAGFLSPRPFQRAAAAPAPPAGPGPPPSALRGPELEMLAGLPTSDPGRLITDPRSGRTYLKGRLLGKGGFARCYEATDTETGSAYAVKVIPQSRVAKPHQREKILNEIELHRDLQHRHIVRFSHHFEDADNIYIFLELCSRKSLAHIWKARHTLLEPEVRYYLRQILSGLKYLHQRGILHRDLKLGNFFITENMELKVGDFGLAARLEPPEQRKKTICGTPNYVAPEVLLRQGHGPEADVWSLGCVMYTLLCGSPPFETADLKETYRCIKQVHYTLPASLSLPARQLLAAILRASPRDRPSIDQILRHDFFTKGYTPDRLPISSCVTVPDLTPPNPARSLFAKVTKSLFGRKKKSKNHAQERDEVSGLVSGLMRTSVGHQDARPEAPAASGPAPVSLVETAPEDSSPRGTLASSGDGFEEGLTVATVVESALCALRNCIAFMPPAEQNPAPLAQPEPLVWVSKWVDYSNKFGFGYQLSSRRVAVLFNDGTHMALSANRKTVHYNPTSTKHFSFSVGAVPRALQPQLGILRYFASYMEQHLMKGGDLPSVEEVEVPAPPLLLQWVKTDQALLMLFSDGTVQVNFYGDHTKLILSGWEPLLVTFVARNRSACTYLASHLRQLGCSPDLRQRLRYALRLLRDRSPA

[3] = biological target: Calcium/calmodulin-dependent protein kinase kinase 1 (Homo sapiens) (UniProt Q8N5S9); assay: Inhibition of human recombinant CaMKK1 at 500 nM in presence of ATP by radiometric assay relative to control
Calcium/calmodulin-dependent protein kinase kinase 1 (Homo sapiens), sequence (Q8N5S9 whole entry, looked up): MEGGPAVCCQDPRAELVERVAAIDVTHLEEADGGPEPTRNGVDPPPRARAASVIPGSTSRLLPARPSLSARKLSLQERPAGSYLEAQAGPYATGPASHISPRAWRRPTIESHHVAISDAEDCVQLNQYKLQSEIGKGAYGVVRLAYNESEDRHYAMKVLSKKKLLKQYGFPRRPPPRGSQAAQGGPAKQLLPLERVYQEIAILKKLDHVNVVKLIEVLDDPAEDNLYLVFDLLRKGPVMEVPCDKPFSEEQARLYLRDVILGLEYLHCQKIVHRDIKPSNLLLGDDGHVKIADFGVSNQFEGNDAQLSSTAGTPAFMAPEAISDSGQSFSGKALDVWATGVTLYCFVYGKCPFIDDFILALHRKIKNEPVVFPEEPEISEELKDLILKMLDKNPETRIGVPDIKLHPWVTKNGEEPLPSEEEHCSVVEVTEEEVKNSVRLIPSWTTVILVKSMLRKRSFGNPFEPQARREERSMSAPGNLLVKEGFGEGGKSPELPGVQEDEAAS

Homo sapiens = species on record: Homo sapiens; assay: Inhibition of human recombinant KHS1 at 500 nM in presence of ATP by radiometric assay relative to control
[4] = biological target: Calcium/calmodulin-dependent protein kinase type 1 (Homo sapiens) (UniProt Q14012); assay: Inhibition of human recombinant CaMK1a at 500 nM in presence of ATP by radiometric assay relative to control
Calcium/calmodulin-dependent protein kinase type 1 (Homo sapiens), sequence (Q14012 whole entry, looked up): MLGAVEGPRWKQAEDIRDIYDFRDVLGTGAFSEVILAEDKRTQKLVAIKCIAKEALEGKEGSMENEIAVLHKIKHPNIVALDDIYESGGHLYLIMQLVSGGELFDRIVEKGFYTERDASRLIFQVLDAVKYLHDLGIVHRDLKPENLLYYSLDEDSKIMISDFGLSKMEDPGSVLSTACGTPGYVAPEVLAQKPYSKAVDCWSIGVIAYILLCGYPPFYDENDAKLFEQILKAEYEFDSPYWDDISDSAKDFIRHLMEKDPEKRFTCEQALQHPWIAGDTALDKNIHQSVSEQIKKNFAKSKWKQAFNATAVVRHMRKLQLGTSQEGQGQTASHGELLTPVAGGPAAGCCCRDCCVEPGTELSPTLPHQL

[5] = biological target: T1, Serine/threonine-protein kinase Nek3 (Homo sapiens) (UniProt P51956); assay: Inhibition of human recombinant NEK3 at 500 nM in presence of ATP by radiometric assay relative to control
T1 sequence (whole entry): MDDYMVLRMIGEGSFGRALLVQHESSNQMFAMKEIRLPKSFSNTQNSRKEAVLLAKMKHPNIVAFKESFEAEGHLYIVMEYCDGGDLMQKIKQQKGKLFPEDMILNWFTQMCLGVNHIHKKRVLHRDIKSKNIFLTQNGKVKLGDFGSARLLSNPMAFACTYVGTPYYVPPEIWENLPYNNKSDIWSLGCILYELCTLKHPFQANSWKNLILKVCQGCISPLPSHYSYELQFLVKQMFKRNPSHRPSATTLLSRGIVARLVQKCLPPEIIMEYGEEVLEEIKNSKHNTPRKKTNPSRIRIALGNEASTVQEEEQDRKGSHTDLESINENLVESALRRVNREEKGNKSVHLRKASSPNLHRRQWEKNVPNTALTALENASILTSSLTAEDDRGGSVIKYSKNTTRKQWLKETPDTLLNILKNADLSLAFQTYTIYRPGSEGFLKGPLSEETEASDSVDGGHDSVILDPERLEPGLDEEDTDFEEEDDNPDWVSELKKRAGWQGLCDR

[6] = biological target: Protein kinase C gamma type (Homo sapiens) (UniProt P05129); assay: Inhibition of human recombinant PKCg at 15 nM in presence of ATP by radiometric assay relative to control
[7] = biological target: T2, Tyrosine-protein kinase ITK/TSK (Homo sapiens) (UniProt Q08881); assay: Inhibition of human recombinant ITK at 15 nM related to control ULK1
T2 sequence (whole entry): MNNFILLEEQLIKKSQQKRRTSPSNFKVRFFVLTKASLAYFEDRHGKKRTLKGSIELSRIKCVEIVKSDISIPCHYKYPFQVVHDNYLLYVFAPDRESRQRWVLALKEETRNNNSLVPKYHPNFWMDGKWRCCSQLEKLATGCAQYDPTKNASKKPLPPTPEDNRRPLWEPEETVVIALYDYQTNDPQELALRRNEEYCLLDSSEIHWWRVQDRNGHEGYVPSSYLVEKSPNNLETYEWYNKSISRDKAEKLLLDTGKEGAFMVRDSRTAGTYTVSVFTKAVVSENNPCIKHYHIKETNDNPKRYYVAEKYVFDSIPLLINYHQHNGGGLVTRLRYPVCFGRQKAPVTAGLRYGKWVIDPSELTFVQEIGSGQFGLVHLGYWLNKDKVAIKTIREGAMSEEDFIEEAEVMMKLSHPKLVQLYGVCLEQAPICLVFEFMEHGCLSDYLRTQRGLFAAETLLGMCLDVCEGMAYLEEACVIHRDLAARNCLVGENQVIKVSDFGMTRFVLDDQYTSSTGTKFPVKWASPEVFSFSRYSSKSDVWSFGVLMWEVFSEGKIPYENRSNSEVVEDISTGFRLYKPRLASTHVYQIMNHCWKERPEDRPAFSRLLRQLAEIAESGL

[8] = biological target: Mitogen-activated protein kinase 9 (Homo sapiens) (UniProt P45984); assay: Inhibition of human recombinant JNK2 at 15 nM in presence of ATP by radiometric assay relative to control
Mitogen-activated protein kinase 9 (Homo sapiens), sequence (P45984 whole entry, looked up): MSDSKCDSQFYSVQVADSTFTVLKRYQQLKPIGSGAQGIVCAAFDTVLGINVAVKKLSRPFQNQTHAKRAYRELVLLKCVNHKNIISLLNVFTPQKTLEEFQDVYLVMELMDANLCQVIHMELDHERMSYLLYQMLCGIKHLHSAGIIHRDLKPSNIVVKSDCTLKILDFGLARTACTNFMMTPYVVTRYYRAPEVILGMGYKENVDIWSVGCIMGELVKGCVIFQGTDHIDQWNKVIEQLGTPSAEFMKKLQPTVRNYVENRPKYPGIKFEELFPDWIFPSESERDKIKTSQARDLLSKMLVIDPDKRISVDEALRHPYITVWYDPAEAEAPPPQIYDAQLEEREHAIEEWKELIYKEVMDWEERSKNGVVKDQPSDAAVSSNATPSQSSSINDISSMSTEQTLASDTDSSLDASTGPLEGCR

[9] = biological target: T3, Serine/threonine-protein kinase tousled-like 1 (Homo sapiens) (UniProt Q9UKI8); assay: Inhibition of human recombinant TLK1 at 40 nM related to control ULK1
T3 sequence (whole entry): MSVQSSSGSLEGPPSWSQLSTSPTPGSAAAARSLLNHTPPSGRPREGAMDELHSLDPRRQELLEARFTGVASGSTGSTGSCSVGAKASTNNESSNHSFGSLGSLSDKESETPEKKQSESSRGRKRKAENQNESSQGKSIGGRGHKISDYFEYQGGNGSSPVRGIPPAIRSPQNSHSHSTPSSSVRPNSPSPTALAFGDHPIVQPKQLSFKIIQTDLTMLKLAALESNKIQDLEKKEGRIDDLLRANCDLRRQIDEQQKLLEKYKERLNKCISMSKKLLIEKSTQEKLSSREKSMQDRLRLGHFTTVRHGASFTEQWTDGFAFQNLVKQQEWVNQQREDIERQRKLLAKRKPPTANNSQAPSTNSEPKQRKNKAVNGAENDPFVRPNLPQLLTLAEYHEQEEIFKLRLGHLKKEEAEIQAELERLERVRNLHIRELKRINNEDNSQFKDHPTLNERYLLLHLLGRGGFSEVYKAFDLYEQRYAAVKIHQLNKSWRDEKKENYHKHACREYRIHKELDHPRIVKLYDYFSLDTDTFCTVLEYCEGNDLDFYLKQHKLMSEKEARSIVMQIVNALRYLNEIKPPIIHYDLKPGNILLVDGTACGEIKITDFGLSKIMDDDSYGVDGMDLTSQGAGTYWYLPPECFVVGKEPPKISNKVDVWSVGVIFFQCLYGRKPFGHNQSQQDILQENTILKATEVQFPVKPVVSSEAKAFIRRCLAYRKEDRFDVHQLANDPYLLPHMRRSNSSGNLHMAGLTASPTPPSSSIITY

- fold change (FC) [1]: 0
- fold change (FC) [2]: 0
- inhibition [3]: 8%
- inhibition (Homo sapiens): 11%
- inhibition [4]: 0%
- inhibition [5]: 7%
SMILES: CNC(=O)c1ccccc1Oc1nc(Nc2cc(OC)c(OC)c(OC)c2)ncc1Br

- inhibition [6]: 0%
- fold change (FC) [7]: 0.05
- inhibition [8]: 0%
SMILES: CC(C)[C@H](NC(=O)c1cc(-c2cnn3cc(-c4ccc(OCCN5CCCCC5)cc4)cnc23)cs1)C(F)(F)F

- fold change (FC) [9]: 0
SMILES: O=C(N[C@@H](C1CC1)C(F)(F)F)c1cc(-c2cnn3cc(-c4ccc(F)cc4)cnc23)cs1
